This is an account of results in patent US20190388377A1, “COMPOSITIONS AND METHODS FOR THE TREATMENT OF LIVER DISEASES AND DISORDERS” (AXCELLA HEALTH INC., priority 2018, published 2019).

The test system of assay [1] is Albumin. In words: Albumin secretion after 72 h by ELISA, PHH model, Example 2. Format: cell-based, human. Conditions: FFA+TNFα. As to the method: (§1) PHH from two healthy human donors (Lonza, TRL) were seeded on day 0 at density of 6e04 cells in 96 well optical microplates (Thermofisher) in hepatocyte plating media (William's E medium, WEM) (Gibco) supplemented with 10% heat-inactivated FBS (Atlanta Bio), 2 mM Glutamax (Gibco), and 0.2% Primocin (InVivoGen) and incubated for 6 hours at 37° C., 5% CO2. After 6 hours, cells were washed twice and incubated overnight at 37° C., 5% CO2 with Hepatocytes defined medium (Corning) supplemented with 2 mM Glutamax (Gibco), and 1× Penicillin/Streptomycin. On day 1, cells were washed twice and incubated for 24 h in the hepatocyte culture media in the same conditions described above.
(§2) On day 2, cells were washed twice with DPBS 1× (Gibco) to remove excess amino acids and maintained in pretreatment media (1×HMDB, a defined custom amino acid concentration based on the mean physiological concentrations in blood, in WEM±supplemental amino acids): • a. Amino acid-free WEM (US Biologicals) supplemented with 11 mM Glucose (Sigma), 0.272 mM Sodium Pyruvate (Sigma), 1× P/S (Gibco) and containing 1×HMDB with no supplemental amino acids; or • b. The same media described above 1×HMDB WEM with supplemental amino acid and amino acid combination treatments at various concentrations. Cells were maintained in the defined media (a. & b.) for 24 hours at 37° C., 5% CO2. The HMDB values are published in the Human Metabolome Database (Wishart D S, Tzur D, Knox C, et al., HMDB: the Human Metabolome Database. Nucleic Acids Res. 2007 January; 35 (Database issue):D521-6. 17202168; which is hereby incorporated by reference in its entirety). Co-Treatment with Free Fatty Acids and Amino Acids Combination
(§3) After 24 h pre-treatment, cells maintained in the pretreatment media±supplemental amino acids (section (a. & b.) described above) were exposed to free fatty acids (FFA) at 250 uM with a ratio of 2:1 (Oleate:Palmitate) supplemented with TNF-α (Thermofisher) at 1 ng/ml. Cells were incubated with the FFAs mixture (FFAs+TNF-α)±supplemental amino acids treatments for 24 hours at 37° C., 5% CO2. After 24 hours incubation, media was removed for cytokine analysis and replaced by fresh media containing the same conditions described above (FFAs mixture±supplemental amino acids treatments). Cells were incubated for an additional 48 hours for a total of 72 hours of FFA and TNF-α stimulation. After 72 hours of incubation, media was removed for albumin and urea analysis and the cells were fixed for nuclei and lipid staining.
Albumin secretion was measured as a functionality test in primary human hepatocytes. Albumin was measured by ELISA (Human Albumin ELISA Quantitation set, Bethyl Laboratories) at 1/200 dilution in the sample diluent (Bethyl Laboratories). Data is reported as median fold change from control, statistical analysis was done using t-Test.
In general terms: An ELISA detects its analyte on a solid surface through an enzyme-linked reagent.

Assay [2] deals with Human CCL2 (MCP-1). Put plainly: MCP1 secretion by ELISA after 24 h, PHH model for NASH, Example 2. Type of assay: cell-based. The settings on record: FFA+TNFα. The method, then:
as §1, §2, §3
Human CCL2 (MCP-1) was measured by ELISA (Human […] DuoSet ELISA, R&D Systems) at 1/20 dilution in 1× Reagent Diluent (Reagent Ancillary Kit 2, R&D Systems). MCP1 data in primary human hepatocytes treated with FFA+TNFα+supplemental amino acids was normalized to 1×HMDB WEM+FFA+TNFα baseline. Data is reported as median fold change from control, statistical analysis was done using t-Test.

The subject of assay [3] is primary human hepatocytes. In words: Intracellular lipid accumulation after 72 h by fluorescence microscopy, PHH model for NASH, Example 2. Format: cell-based. Conditions: FFA+TNFα. The method, then: as §1, §2, §3
After 72 hours, cells were washed twice in 100 ul PBS 1× (Gibco), fixed with 4% Paraformaldehyde, and washed twice with PBS 1× (100 ul). After fixation, lipids were stained with HCS LipidTOX Red Neutral (Thermofisher Scientific) diluted 1000× and nuclei were stained with Hoechst 3342 (Life Technologies) diluted to 4 ug/ml. The LipidTOX™ neutral lipid stain has an extremely high affinity for neutral lipid droplets that was detected by fluorescence microscopy using a high content imager (Molecular Devices). Data was normalized to the cell concentration determined by nuclei count. Images were analyzed and total lipid area was calculated using granularity module in MetaXpress 6 software. Data is reported as median fold change from control, statistical analysis was done using t-Test.

In assay [4] the test system is Procollagen III. In words: Procollagen III secretion by ELISA, TGFβ1-stimulated hepatic stellate cells, Example 4. Type of assay: cell-based, human. The settings on record: HSC, three donors. The method, then: Primary human hepatic stellate cells were obtained from Samsara Sciences. Cells from three different donors were grown in Complete HSC Medium to ˜80% confluence in T75 or T150 flasks below passage 10 were seeded into sterile, collagen I coated, 96-well optical plastic microplates (ThermoScientific) and incubated overnight at 37° C., 5% CO2 in a humidified incubator in DMEM with 2% Fetal Bovine Serum and 1% Antimycotic. […] After 24 hours of stimulus, supernatant was removed and used to measure Procollagen III and cells were then washed and fixed with 4% paraformaldehyde for further staining. Procollagen III, an important biomarker of fibrosis was measured by ELISA (Human PCIII Elisa Kit, G-Biosciences) following the manufacturer's recommendations. Fixed cells with 4% paraformaldehyde were permeabilized with 0.1% Triton X-100 then immunostained for alpha SMA and labeled for EdU incorporation.

The test system of assay [5] is primary human hepatocytes. Put plainly: Intracellular triglyceride level after 72 h, colorimetric assay, Example 3. The settings on record: FFAs+TNFα; two healthy donors. Type of assay: cell-based. The method, then:
On day 2, cells were washed twice with DPBS 1× (Gibco) and maintained in: • a. Amino acid-free WEM (US Biologicals) supplemented with 11 mM Glucose (Sigma), 0.272 mM Sodium Pyruvate (Sigma), 1× P/S (Gibco) and containing a defined custom amino acid concentration based on the mean physiological concentrations in blood (1× HMDB WEM (−) supplemental amino acids); or • b. The same media described above 1×HMDB WEM (+) supplemental amino acids treatment dose at a 30× of HMDB amino acid concentration. Cells were maintained in the defined amino acids media (a. & b.) for 24 hours at 37° C., 5% CO2. Co-Treatment with Free Fatty Acids and Various Amino Acids Supplemental Treatments
After 24 h pre-treatment, cells maintained in the same media (a. & b.) described above 1×HMDB±supplemental amino acids were now exposed to free fatty acids (FFA) at 250 uM with a ratio of 2:1 (Oleate:Palmitate) supplemented with TNF-α (Thermofisher) at 1 ng/ml or vehicle. Cells with the FFAs+TNFα mixture±amino acids treatments were incubated for 72 hours at 37° C., 5% CO2 with a media change after the first 24 hours.
After 72 hours, cells were washed once with cold PBS 1× (Gibco), scrapped off and collected into 75 ul of standard diluent (Cayman). Collected cells were vortexed for 1 min at a 2500 rpm speed followed by two times sonication (Elmasonic sonicator) for 1 min each. Supernatants were collected for triglyceride analysis after centrifugation at 1000 rpm for 10 min at 4° C. Intracellular triglyceride level was assessed using triglyceride colorimetric assay kit (Cayman) and following manufacturer's recommendations. Data was normalized to the total amount of protein using Bicinchoninic Acid Protein Assay Kit (Sigma). Data is reported as median fold change from FFAs+TNFα condition, statistical analysis was done using t-Test.

Assay [6] concerns alpha smooth muscle actin (αSMA). In words: HSC activation by alpha SMA immunostaining, TGFβ1-stimulated hepatic stellate cells. Type of assay: cell-based, human. The method, then: Primary human hepatic stellate cells were obtained from Samsara Sciences. Cells from three different donors were grown in Complete HSC Medium to ˜80% confluence in T75 or T150 flasks below passage 10 were seeded into sterile, collagen I coated, 96-well optical plastic microplates (ThermoScientific) and incubated overnight at 37° C., 5% CO2 in a humidified incubator in DMEM with 2% Fetal Bovine Serum and 1% Antimycotic. […] After 24 hours of stimulus, supernatant was removed and used to measure Procollagen III and cells were then washed and fixed with 4% paraformaldehyde for further staining.
Procollagen III, an important biomarker of fibrosis was measured by ELISA (Human PCIII Elisa Kit, G-Biosciences) following the manufacturer's recommendations. Fixed cells with 4% paraformaldehyde were permeabilized with 0.1% Triton X-100 then immunostained for alpha SMA and labeled for EdU incorporation.
Cells were imaged using ImageXpress micro confocal high content imager (Molecular Devices). […] Image analysis was performed using MetaXpress version 6.2.3.733 (Molecular Devices).
Fixed cells immunostained for alpha smooth muscle actin (αSMA) were analyzed and stained area was normalized to total nuclei count. Fold change were calculated relative to the baseline amino acid (1×HMDB) condition stimulated with 3 ng/mL TGFβ1.

The subject of assay [7] is Urea. In words: Urea production after 72 h by urea nitrogen (BUN) colorimetric assay, PHH model, Example 2. Format: cell-based, human. Conditions: FFA+TNFα. The method, then:
as §1, §2, §3
Urea was measured as an indicator of hepatocytes functionality by urea nitrogen direct assay (StanBio). Cell supernatant was added to the BUN color reagent and BUN acid reagent at 1(color):2(acid) ratio. Incubate the cell supernatant with BUN reagent for 12 min at 100° C. then for 5 min at 4° C. Read absorbance at 520 nm. Data was normalized to the control. Data is reported as median fold change from control, statistical analysis was done using t-Test.

`C[N+](C)(C)C[C@H](O)CC(=O)[O-]` [Car, L-carnitine]: the “albumin secretion (in words)” value in assay [1] (hepatocyte donor 1) was “did not reduce albumin secretion”; in assay [1] (hepatocyte donor 2), “reduced albumin secretion”. Also, the “MCP1 secretion (in words)” value is recorded as “did not reduce MCP1 secretion” in assay [2] (hepatocyte donor 1) and “did not affect MCP1 secretion” in assay [2] (hepatocyte donor 2). Further, the “lipid accumulation (in words)” value was “reduced lipid accumulation” in assay [3] (hepatocyte donor 1) and “reduced lipid accumulation but less than the previously described combinations” in assay [3] (hepatocyte donor 2). For the same compound, in assay [4], the “procollagen III secretion (in words)” value was “had no impact on procollagen III secretion”. Moreover, the “triglyceride level (in words)” value in assay [5] is listed as “reduces triglyceride level but the effect was less pronounced than the combinations described previously”. The “alpha SMA stained area (in words)” value in assay [6] was “reduced the alpha SMA stained area”. Besides, the “urea production (in words)” value was “No changes in urea production” in assay [7] (hepatocyte donor 1) and “slightly reduced urea production” in assay [7] (hepatocyte donor 2).
